In test [1] the target is Prostaglandin G/H synthase 1 (Homo sapiens, UniProt P23219). Nature of the test: biochemical. It is filed as tissue-based, Platelet. The note with it: platelet.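 Also: inhibition of COX-1 enzyme activity, with arachidonic acid supplied as substrate; in other assays of this panel Not Active means under 50% inhibition at 10 µM.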
Test [2] concerns the target T1, Amine oxidase [flavin-containing] A (Homo sapiens, UniProt P21397).
T1 sequence (P21397 whole entry): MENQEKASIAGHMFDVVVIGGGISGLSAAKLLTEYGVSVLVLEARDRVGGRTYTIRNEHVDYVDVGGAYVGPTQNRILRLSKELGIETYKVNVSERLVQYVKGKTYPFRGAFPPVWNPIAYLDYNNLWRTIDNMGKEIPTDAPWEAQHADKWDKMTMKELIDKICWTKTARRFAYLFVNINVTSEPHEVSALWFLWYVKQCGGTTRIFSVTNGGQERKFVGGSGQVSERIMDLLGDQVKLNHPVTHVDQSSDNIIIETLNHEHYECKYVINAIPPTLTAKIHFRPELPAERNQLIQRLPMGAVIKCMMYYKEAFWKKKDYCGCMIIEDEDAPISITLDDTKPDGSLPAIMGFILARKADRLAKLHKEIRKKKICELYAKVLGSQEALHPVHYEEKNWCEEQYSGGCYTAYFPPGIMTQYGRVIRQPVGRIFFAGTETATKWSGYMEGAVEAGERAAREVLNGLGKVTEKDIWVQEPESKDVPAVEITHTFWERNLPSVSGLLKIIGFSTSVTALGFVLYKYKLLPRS
Nature of the test: DRUGMATRIX: Monoamine Oxidase MAO-A enzyme inhibition (substrate: Kynuramine). Further details: species or system BTI-TN-5B1-4. The note with it: bti-tn-5b1-4; Not Active = under 50% inhibition at 10 µM.

Test [3] is described as follows: DRUGMATRIX: Calcium Channel Type L, Benzothiazepine radioligand binding (ligand: [3H] Diltiazem). It is filed as cell membranes, Rattus norvegicus, Wistar, Brain, Membrane. The conditions noted are these: Not Active = under 50% inhibition at 10 µM.
Another test deals with T2, Interstitial collagenase (Homo sapiens, UniProt P03956).
T2 sequence (P03956 whole entry): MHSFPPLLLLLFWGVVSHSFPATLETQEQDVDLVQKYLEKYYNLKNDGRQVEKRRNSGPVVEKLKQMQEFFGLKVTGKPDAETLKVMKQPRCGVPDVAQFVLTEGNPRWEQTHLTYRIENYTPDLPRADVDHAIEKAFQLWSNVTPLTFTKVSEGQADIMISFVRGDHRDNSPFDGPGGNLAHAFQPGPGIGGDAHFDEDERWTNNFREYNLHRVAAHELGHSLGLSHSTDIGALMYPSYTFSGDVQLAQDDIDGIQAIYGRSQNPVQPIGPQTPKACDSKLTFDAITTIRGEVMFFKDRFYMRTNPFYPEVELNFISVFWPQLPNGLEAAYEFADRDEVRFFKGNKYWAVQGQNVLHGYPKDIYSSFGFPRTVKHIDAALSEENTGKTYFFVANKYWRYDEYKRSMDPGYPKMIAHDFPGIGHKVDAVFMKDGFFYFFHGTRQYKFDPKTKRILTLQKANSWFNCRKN
Nature of the test: biochemical. It is filed as tissue-based, Rheumatoid synovial fibroblasts.

Test [4] is described as follows: DRUGMATRIX: ATPase, Na+/K+ enzyme inhibition (substrate: ATP). It is filed as tissue-based, Sus scrofa, Heart. The note with it: Not Active = under 50% inhibition at 10 µM.
Test [5] deals with Vascular endothelial growth factor receptor 1 (Homo sapiens, UniProt P17948). Nature of the test: biochemical. It is filed as cell-based, HUVEC. The conditions noted are these: huvec.
Vascular endothelial growth factor receptor 1, sequence (P17948 whole entry): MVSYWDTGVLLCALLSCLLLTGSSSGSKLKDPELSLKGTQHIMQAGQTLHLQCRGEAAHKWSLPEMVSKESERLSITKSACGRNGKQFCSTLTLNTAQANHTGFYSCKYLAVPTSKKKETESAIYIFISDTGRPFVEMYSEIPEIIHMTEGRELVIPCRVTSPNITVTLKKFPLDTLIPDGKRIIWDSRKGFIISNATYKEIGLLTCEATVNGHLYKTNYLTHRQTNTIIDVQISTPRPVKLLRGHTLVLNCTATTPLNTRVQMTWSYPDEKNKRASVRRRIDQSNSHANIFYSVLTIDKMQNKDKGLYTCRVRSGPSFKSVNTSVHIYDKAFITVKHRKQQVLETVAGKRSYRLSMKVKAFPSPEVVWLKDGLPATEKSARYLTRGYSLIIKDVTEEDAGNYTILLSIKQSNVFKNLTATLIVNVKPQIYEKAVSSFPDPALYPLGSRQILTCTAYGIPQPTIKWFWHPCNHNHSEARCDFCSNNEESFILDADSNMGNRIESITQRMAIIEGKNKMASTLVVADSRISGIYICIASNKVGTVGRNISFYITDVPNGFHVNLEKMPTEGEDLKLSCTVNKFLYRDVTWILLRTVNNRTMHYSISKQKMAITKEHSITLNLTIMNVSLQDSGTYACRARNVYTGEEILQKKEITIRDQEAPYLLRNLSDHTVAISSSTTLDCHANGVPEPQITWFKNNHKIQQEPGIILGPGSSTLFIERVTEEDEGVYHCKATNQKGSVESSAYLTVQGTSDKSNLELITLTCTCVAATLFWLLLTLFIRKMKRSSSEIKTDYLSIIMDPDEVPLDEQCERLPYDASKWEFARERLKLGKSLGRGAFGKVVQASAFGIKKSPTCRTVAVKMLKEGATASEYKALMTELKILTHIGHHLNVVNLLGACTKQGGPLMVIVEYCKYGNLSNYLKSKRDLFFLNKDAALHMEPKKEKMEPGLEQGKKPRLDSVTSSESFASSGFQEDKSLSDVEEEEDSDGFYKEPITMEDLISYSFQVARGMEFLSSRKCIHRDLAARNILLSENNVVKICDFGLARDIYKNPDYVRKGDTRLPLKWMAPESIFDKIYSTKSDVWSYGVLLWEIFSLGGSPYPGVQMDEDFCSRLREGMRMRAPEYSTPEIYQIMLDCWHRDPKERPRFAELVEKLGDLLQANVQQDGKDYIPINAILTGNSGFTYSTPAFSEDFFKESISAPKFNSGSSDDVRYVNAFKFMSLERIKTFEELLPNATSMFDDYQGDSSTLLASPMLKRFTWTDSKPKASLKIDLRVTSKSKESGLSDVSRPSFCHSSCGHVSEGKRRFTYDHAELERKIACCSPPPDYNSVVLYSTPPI
The target of a further test is T3, Androgen receptor (Rattus norvegicus, UniProt P15207). Also: in other assays of this panel Not Active means under 50% inhibition at 10 µM.
T3 sequence (P15207 whole entry): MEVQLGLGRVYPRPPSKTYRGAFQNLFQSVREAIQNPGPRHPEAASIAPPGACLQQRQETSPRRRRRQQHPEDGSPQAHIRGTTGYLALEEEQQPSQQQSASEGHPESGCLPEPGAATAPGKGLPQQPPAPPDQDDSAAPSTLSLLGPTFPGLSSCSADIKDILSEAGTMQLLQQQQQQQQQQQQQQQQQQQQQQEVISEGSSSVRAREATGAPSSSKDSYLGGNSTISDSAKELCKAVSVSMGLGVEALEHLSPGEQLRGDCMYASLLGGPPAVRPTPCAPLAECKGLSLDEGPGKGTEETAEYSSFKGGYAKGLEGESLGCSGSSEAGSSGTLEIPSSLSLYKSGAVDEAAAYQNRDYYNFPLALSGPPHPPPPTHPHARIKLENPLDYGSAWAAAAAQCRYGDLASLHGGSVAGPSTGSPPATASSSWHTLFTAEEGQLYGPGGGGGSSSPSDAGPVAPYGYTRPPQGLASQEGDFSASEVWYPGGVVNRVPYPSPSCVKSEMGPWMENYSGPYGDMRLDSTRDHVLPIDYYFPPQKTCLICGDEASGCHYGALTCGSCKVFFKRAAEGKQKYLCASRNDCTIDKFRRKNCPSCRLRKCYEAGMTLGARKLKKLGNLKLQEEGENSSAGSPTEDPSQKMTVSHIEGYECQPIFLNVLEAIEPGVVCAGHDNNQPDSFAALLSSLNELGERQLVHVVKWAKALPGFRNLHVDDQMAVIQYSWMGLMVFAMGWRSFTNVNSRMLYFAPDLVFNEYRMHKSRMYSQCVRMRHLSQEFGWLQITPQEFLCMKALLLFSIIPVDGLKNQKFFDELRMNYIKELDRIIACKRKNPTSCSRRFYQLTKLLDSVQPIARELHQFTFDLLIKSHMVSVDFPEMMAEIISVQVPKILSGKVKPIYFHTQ

Prostaglandin G/H synthase 1, sequence (P23219 whole entry): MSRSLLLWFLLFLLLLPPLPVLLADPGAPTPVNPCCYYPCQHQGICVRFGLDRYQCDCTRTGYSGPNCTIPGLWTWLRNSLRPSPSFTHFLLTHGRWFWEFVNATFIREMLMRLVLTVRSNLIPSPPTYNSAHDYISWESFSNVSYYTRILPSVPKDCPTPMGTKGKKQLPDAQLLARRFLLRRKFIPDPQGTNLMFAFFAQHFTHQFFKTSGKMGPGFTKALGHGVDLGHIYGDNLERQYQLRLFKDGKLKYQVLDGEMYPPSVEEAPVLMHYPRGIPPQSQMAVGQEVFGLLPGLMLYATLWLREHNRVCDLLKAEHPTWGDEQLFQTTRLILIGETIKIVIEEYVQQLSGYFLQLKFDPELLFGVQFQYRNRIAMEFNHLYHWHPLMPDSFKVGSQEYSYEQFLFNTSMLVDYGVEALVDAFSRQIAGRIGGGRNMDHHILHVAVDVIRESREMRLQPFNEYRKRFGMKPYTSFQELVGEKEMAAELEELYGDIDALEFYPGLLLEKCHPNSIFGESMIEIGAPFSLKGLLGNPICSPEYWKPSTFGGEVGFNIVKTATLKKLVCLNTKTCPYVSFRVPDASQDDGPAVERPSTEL

Consider `NC1CCN(c2nc3c(cc2F)c(=O)c(C(=O)O)cn3-c2ccc(F)cc2F)C1` (stereo not drawn) [TOSUFLOXACIN], for which the IC50 entry (in test [1]; in test [2]; in test [3]; at Interstitial collagenase; in test [4]; in test [5]) was “Not Active” throughout. For the same compound, on Androgen receptor, the IC50 entry is given as “Not Active”. For the same compound, the Ki result in test [3] and in test [4] was “Not Active” each time.

Consider `N#Cc1ccc(C(c2ccc(C#N)cc2)n2cncn2)cc1` [LETROZOLE], for which the IC50 entry (in test [1]; in test [2]; in test [3]; against Interstitial collagenase; in test [4]; in test [5]) was “Not Active” in each case. Further, the IC50 result at Androgen receptor is reported as “Not Active”. The Ki result in test [3] and in test [4] was “Not Active” each time.

On to `O=C1Nc2ccc(Cl)cc2C(c2ccccc2Cl)=NC1O` (stereo not drawn) [LORAZEPAM], for which the IC50 result (in test [1]; in test [2]; in test [3]; on Interstitial collagenase; in test [4]; in test [5]) was “Not Active” in each case. Moreover, the IC50 entry on Androgen receptor is “Not Active”. For the same compound, the Ki result in test [3] and in test [4] was “Not Active” throughout.

As for SODIUM ORTHOVANAD, the IC50 result (in test [1]; in test [2]; in test [3]; on Interstitial collagenase; in test [5]; against Androgen receptor) was “Not Active” in each case. The Ki entry (in test [1]; in test [2]; in test [3]; at Interstitial collagenase; in test [5]; at Androgen receptor) was “Not Active” throughout.

On to `CCN(CC)CC(=O)Nc1c(C)cccc1C` [LIDOCAINE], for which the IC50 result (in test [1]; in test [2]; in test [3]; against Interstitial collagenase; in test [4]; in test [5]) was “Not Active” in each case. Also, on Androgen receptor, the IC50 result is recorded as “Not Active”. In addition, the Ki result in test [3] and in test [4] was “Not Active” throughout.

`CN(C)CCOC(c1ccccc1)c1ccccc1` [DIPHENHYDRAMINE]: the IC50 result (in test [1]; in test [2]; at Interstitial collagenase; in test [5]; against Androgen receptor) was “Not Active” in each case.

Turning to `Cc1c(C)c2c(c(C)c1O)CCC(C)(CN1CCN(c3cc(N4CCCC4)nc(N4CCCC4)n3)CC1)O2` (stereo not drawn), the IC50 result in test [1] was “Not Active”; in test [2] it was “Not Active”; in test [3] (read-out: IC50), 1650 nM; against Interstitial collagenase, “Not Active”; in test [4], “Not Active”; in test [5] it was “Not Active”. The IC50 result at Androgen receptor is reported as “Not Active”. Besides, the Ki in test [3] (read-out: Ki) was 1470 nM; in test [4] it was “Not Active”.

Turning to `Clc1ccccc1CN1CCc2sccc2C1` [TICLOPIDINE], the IC50 result (in test [1]; in test [2]; in test [3]; at Interstitial collagenase; in test [4]; in test [5]) was “Not Active” throughout. Moreover, the IC50 result on Androgen receptor was “Not Active”. For the same compound, the Ki result in test [3] and in test [4] was “Not Active” each time.

As for `Cc1ccc(NC(=O)c2ccc(CN3CCN(C)CC3)cc2)cc1Nc1nccc(-c2cccnc2)n1` [IMATINIB], the IC50 result (in test [1]; in test [2]; on Interstitial collagenase; against Androgen receptor) was “Not Active” in each case.

As for `CCN(CC)CCNC(=O)c1cc(S(C)(=O)=O)ccc1OC` [TIAPRIDE], the IC50 result (in test [1]; in test [2]; in test [3]; on Interstitial collagenase; in test [4]; in test [5]) was “Not Active” each time. Besides, the Ki result in test [3] and in test [4] was “Not Active” each time.

The record behind these values is ChEMBL document CHEMBL1909046, “DrugMatrix in vitro pharmacology data”.
